{"source": "patent US20030039708A1", "about": "“NON-MA HUANG HERB WEIGHT LOSS PRODUCT” (priority 2001, published 2003)", "origin": "cited, not measured here", "key": {"[1]": {"conditions": "obese patients"}, "[2]": {"conditions": "placed in water"}, "[3]": {"conditions": "double-blind study"}, "[4]": {"conditions": "placebo group gained weight over the length of the trial"}, "[5]": {"conditions": "in combination with diet, versus diet alone"}, "[6]": {"assay": "not given", "remark": "listed apart in the source"}, "[7]": {"conditions": "in vivo"}}, "note": "Like-named read-outs stand apart in the source and are kept apart here.", "data": [{"compound": "[Cr]", "note": "[chromium]", "values": [{"measurement": "abdominal fat gained", "setting": "placebo group gained 6.5%", "result": 1, "unit": "%"}, {"measurement": "reduction of insulin resistance", "setting": "statistically significant, maintained at the end of eight months", "result": 40, "unit": "%"}, {"measurement": "lean body mass", "setting": "[1]", "result": "increased"}]}, {"compound": "Glucomannan", "values": [{"measurement": "swelling in water", "setting": "[2]", "result": "up to 17 times its original volume"}, {"measurement": "HDL cholesterol", "setting": "[3]", "result": "no significant increase"}, {"measurement": "LDL cholesterol", "setting": "[3]", "result": "significant reductions"}, {"measurement": "systolic blood pressure", "setting": "[3]", "result": "reduced"}, {"measurement": "total cholesterol", "setting": "[3]", "result": "significant reductions"}, {"measurement": "triglycerides", "setting": "[3]", "result": "significant reductions"}, {"measurement": "body weight change", "setting": "[4]", "result": "weight loss"}, {"measurement": "blood glucose", "setting": "[5]", "result": "more effective than diet alone"}, {"measurement": "body weight", "setting": "[5]", "result": "more effective than diet alone"}, {"measurement": "hunger and satiety sensation", "setting": "[5]", "result": "more effective than diet alone"}, {"measurement": "total serum cholesterol", "setting": "[5]", "result": "more effective than diet alone"}, {"measurement": "tolerability", "setting": "[6]; long term treatment of severe obesity", "result": "well tolerated"}, {"measurement": "weight loss in relation to the fatty mass alone", "setting": "[6]; severely obese patients, diet plus glucomannan", "result": "more significant weight loss"}]}, {"compound": "O=C(O[C@@H]1Cc2c(O)cc(O)cc2O[C@@H]1c1cc(O)c(O)c(O)c1)c1cc(O)c(O)c(O)c1", "note": "[Epigallocatechin gallate]", "values": [{"measurement": "blood cholesterol", "setting": "[7]", "result": "significantly reduced"}, {"measurement": "blood triglyceride", "setting": "[7]", "result": "significantly reduced"}, {"measurement": "body weight", "setting": "[7]", "result": "significantly reduced"}, {"measurement": "food intake", "setting": "[7]", "result": "significantly reduced"}, {"measurement": "growth of the prostate, uterus, and ovary", "setting": "[7]", "result": "significantly reduced"}]}]}
